# Legend:
# Erk1/2 phosphorylation = experiment: Erk1/2 Phosphorylation Assay (western blot), Panc-1; type: cell-based, human; conditions: at 10 μM, * = activation
# Summary of the method: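 KRas G12D Panc-1 cells were treated 6 h at 37° C with compound at 10 μM or serial dilutions for IC50 (0.3% DMSO). In method 1, cells were serum-starved overnight (0.5% FBS) and then given 1.5 ng/ml EGF for 15 min. In method 2, cells stayed in 10% FBS without stimulation. Lysate phospho-Erk1/2 (Thr202/Tyr204) was read by western blot.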
# [1] = system: Smad2/Smad3 phosphorylation; experiment: Phospho-Smad2/3 Inhibition Assay (western blot), Panc-1; type: cell-based, human; conditions: at 10 μM, Panc-1 pancreatic cancer cell line; starred symbols = activation
# Summary of the method: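 Panc-1 cells (KRas G12D), starved overnight in 0.5% FBS, treated 3 h at 37° C with compound at 10 μM final (0.3% DMSO) or serial dilutions for IC50, then stimulated with 10 ng/ml TGF-b1 for 1 h. Phospho-Smad2 (Ser465/467) and phospho-Smad3 (Ser423/425) detected by western blot.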
smiles,measurement,setting,value
"COc1cccc(Nc2nc(-c3ccccn3)nn3cc(-c4ccn(C(C)C)n4)c(C)c23)n1 [Compound 14, 6-(1-Isopropyl-1H-pyrazol-3-yl)-N-(6-methoxypyridin-2-yl)-5-methyl-2-(pyridin-2-yl)pyrrolo[2,1-f][1,2,4]triazin-4-amine]",% inh of Erk1/2 phosphorylation in Panc-1,Erk1/2 phosphorylation,0 (0% inhibition)
same,% inh of Smad2/3 phosphorylation in Panc-1,[1],0 (0 = 0% inhibition)
"COCCCS(=O)(=O)Nc1nc(-c2nccn2C)nn2cc(-c3ccccc3)c(-c3ccccc3)c12 [Compound 213, 3-Methoxy-N-(2-(1-methyl-1H-imidazol-2-yl)-5,6-diphenylpyrrolo[2,1-f][1,2,4]triazin-4-yl)propane-1-sulfonamide]",% inh of Erk1/2 phosphorylation in Panc-1,Erk1/2 phosphorylation,D* (85-100% activation)
same,% inh of Smad2/3 phosphorylation in Panc-1,[1],B (B = 26-45% inhibition)
"CO[C@H]1C[C@H](S(=O)(=O)Nc2nc(-c3nccn3C)nn3cc(-c4ccccc4)c(-c4ccccc4)c23)C1 [Compound 214, (1r,3r)-3-Methoxy-N-(2-(1-methyl-1H-imidazol-2-yl)-5,6-diphenylpyrrolo[2,1-f][1,2,4]triazin-4-yl)cyclobutane-1-sulfonamide]",% inh of Erk1/2 phosphorylation in Panc-1,Erk1/2 phosphorylation,A* (1-25% activation)
same,% inh of Smad2/3 phosphorylation in Panc-1,[1],D (D = 76-100% inhibition)
"CO[C@H]1C[C@H](Nc2nc(-c3nccn3C)nn3cc(-c4ccc(CN)cc4)c(-c4ccccc4)c23)C1.Cl [Compound 206, 6-(4-(Aminomethyl)phenyl)-N-((1r,3r)-3-methoxycyclobutyl)-2-(1-methyl-1H-imidazol-2-yl)-5-phenylpyrrolo[2,1-f][1,2,4]triazin-4-amine hydrochloride salt]",% inh of Erk1/2 phosphorylation in Panc-1,Erk1/2 phosphorylation,B (26-49% inhibition)
same,% inh of Smad2/3 phosphorylation in Panc-1,[1],B (B = 26-45% inhibition)
"COc1ccnc(Nc2nc(-c3nccn3C)nn3cc(-c4ccn(C)n4)c(C(=O)NCCN(C)C)c23)c1 [Compound 177, N-(2-(Dimethylamino)ethyl)-4-((4-methoxypyridin-2-yl)amino)-2-(1-methyl-1H-imidazol-2-yl)-6-(1-methyl-1H-pyrazol-3-yl)pyrrolo[2,1-f][1,2,4]triazine-5-carboxamide]",% inh of Erk1/2 phosphorylation in Panc-1,Erk1/2 phosphorylation,D* (85-100% activation)
same,% inh of Smad2/3 phosphorylation in Panc-1,[1],A (A = 1-25% inhibition)
"COc1ccnc(Nc2nc(-c3nccn3C)nn3cc(-c4cccnc4)c(-c4ccccc4)c23)c1 [Compound 196, N-(4-Methoxypyridin-2-yl)-2-(1-methyl-1H-imidazol-2-yl)-5-phenyl-6-(pyridin-3-yl)pyrrolo[2,1-f][1,2,4]triazin-4-amine]",% inh of Erk1/2 phosphorylation in Panc-1,Erk1/2 phosphorylation,D* (85-100% activation)
same,% inh of Smad2/3 phosphorylation in Panc-1,[1],C (C = 46-75% inhibition)
"COC[C@@H]1CC[C@@H]1CNc1nc(-c2ccccn2)nn2cc(-c3ccn(C(C)C)n3)c(C)c12 (racemic) [Compound 11, rac 6-(1-Isopropyl-1H-pyrazol-3-yl)-N-(((1S,2R)-2-(methoxymethyl)cyclobutyl)methyl)-5-methyl-2-(pyridin-2-yl)pyrrolo[2,1-f][1,2,4]triazin-4-amine]",% inh of Erk1/2 phosphorylation in Panc-1,Erk1/2 phosphorylation,0 (0% inhibition)
same,% inh of Smad2/3 phosphorylation in Panc-1,[1],0 (0 = 0% inhibition)
"CO[C@H]1CC[C@H](Nc2nc(-c3nccn3C)nn3cc(-c4ccncc4)c(-c4ccccc4)c23)C1 (racemic) [Compound 201, rac N-((1S,3S)-3-Methoxycyclopentyl)-2-(1-methyl-1H-imidazol-2-yl)-5-phenyl-6-(pyridin-4-yl)pyrrolo[2,1-f][1,2,4]triazin-4-amine]",% inh of Erk1/2 phosphorylation in Panc-1,Erk1/2 phosphorylation,D* (85-100% activation)
same,% inh of Smad2/3 phosphorylation in Panc-1,[1],A (A = 1-25% inhibition)
"COCCNc1nc(-c2nccn2C)nn2cc(-c3ccncc3)c(-c3ccccc3)c12 [Compound 202, N-(2-Methoxyethyl)-2-(1-methyl-1H-imidazol-2-yl)-5-phenyl-6-(pyridin-4-yl)pyrrolo[2,1-f][1,2,4]triazin-4-amine]",% inh of Erk1/2 phosphorylation in Panc-1,Erk1/2 phosphorylation,D* (85-100% activation)
same,% inh of Smad2/3 phosphorylation in Panc-1,[1],A (A = 1-25% inhibition)
"Cc1c(-c2ccn(C)n2)cn2nc(-c3nccn3C)nc(O)c12 [Compound 172, 5-Methyl-2-(1-methyl-1H-imidazol-2-yl)-6-(1-methyl-1H-pyrazol-3-yl)pyrrolo[2,1-f][1,2,4]triazin-4-ol]",% inh of Erk1/2 phosphorylation in Panc-1,Erk1/2 phosphorylation,0 (0% inhibition)
same,% inh of Smad2/3 phosphorylation in Panc-1,[1],A (A = 1-25% inhibition)
"COc1cc(Nc2nc(-c3ccccn3)nn3cc(-c4ccn(C(C)C)n4)c(C)c23)ncn1 [Compound 13, 6-(1-Isopropyl-1H-pyrazol-3-yl)-N-(6-methoxypyrimidin-4-yl)-5-methyl-2-(pyridin-2-yl)pyrrolo[2,1-f][1,2,4]triazin-4-amine]",% inh of Erk1/2 phosphorylation in Panc-1,Erk1/2 phosphorylation,0 (0% inhibition)
same,% inh of Smad2/3 phosphorylation in Panc-1,[1],0 (0 = 0% inhibition)
"CO[C@H]1C[C@@H](Nc2nc(-c3nccn3C)nn3cc(-c4cccnc4)c(-c4ccccc4)c23)C1 [Compound 191, N-((1s,3s)-3-Methoxycyclobutyl)-2-(1-methyl-1H-imidazol-2-yl)-5-phenyl-6-(pyridin-3-yl)pyrrolo[2,1-f][1,2,4]triazin-4-amine]",% inh of Erk1/2 phosphorylation in Panc-1,Erk1/2 phosphorylation,D* (85-100% activation)
same,% inh of Smad2/3 phosphorylation in Panc-1,[1],A* (A* = 1-25% activation)
"Cc1cnc2c(c1)CCN2c1nc(-c2nccn2C)nn2cc(-c3ccn(C)n3)c(C)c12 [Compound 239, 5-Methyl-2-(1-methyl-1H-imidazol-2-yl)-6-(1-methyl-1H-pyrazol-3-yl)-4-(5-methyl-2,3-dihydro-1H-pyrrolo[2,3-b]pyridin-1-yl)pyrrolo[2,1-f][1,2,4]triazine]",% inh of Erk1/2 phosphorylation in Panc-1,Erk1/2 phosphorylation,C* (46-84% activation)
same,% inh of Smad2/3 phosphorylation in Panc-1,[1],0 (0 = 0% inhibition)
"Cc1c(-c2ccn(C)n2)cn2nc(-c3nccn3C)nc(Nc3ccc(N4CCCC4)cn3)c12 [Compound 228, 5-Methyl-2-(1-methyl-1H-imidazol-2-yl)-6-(1-methyl-1H-pyrazol-3-yl)-N-(5-(pyrrolidin-1-yl)pyridin-2-yl)pyrrolo[2,1-f][1,2,4]triazin-4-amine]",% inh of Erk1/2 phosphorylation in Panc-1,Erk1/2 phosphorylation,A* (1-25% activation)
same,% inh of Smad2/3 phosphorylation in Panc-1,[1],0 (0 = 0% inhibition)
"COc1cc(Nc2nc(-c3nccn3C)nn3cc(-c4ccn(C)n4)c(C)c23)ncc1C [Compound 235, N-(4-Methoxy-5-methylpyridin-2-yl)-5-methyl-2-(1-methyl-1H-imidazol-2-yl)-6-(1-methyl-1H-pyrazol-3-yl)pyrrolo[2,1-f][1,2,4]triazin-4-amine]",% inh of Erk1/2 phosphorylation in Panc-1,Erk1/2 phosphorylation,B* (26-49% activation)
same,% inh of Smad2/3 phosphorylation in Panc-1,[1],0 (0 = 0% inhibition)
"CO[C@H]1C[C@H](Nc2nc(-c3nccn3C)nn3cc(-c4cnccc4C)c(-c4ccccc4)c23)C1 [Compound 218, N-((1r,3r)-3-Methoxycyclobutyl)-2-(1-methyl-1H-imidazol-2-yl)-6-(4-methylpyridin-3-yl)-5-phenylpyrrolo[2,1-f][1,2,4]triazin-4-amine]",% inh of Erk1/2 phosphorylation in Panc-1,Erk1/2 phosphorylation,D* (85-100% activation)
same,% inh of Smad2/3 phosphorylation in Panc-1,[1],B* (B* = 26-45% activation)
"COc1ccnc(Nc2nc(-c3nccn3C)nn3cc(-c4ccn(C)n4)c(C(=O)NCC(F)(F)F)c23)c1 [Compound 174, 4-((4-Methoxypyridin-2-yl)amino)-2-(1-methyl-1H-imidazol-2-yl)-6-(1-methyl-1H-pyrazol-3-yl)-N-(2,2,2-trifluoro-ethyl)pyrrolo[2,1-f][1,2,4]triazine-5-carboxamide]",% inh of Erk1/2 phosphorylation in Panc-1,Erk1/2 phosphorylation,D* (85-100% activation)
same,% inh of Smad2/3 phosphorylation in Panc-1,[1],A* (A* = 1-25% activation)

# Source: patent US12459951B2, “Compounds that interact with RAS superfamily proteins for treatment of cancers, inflammatory diseases, rasopathies, and fibrotic disease” (SHY Therapeutics, LLC, priority 2022, dated 2025)
